Data reported in US11639352B2, “Benzothiazole compounds for the treatment of autoimmune diseases” (Hoffmann-La Roche Inc., priority 2018, dated 2023).

biological target: T1, human TLR9 (Homo sapiens, UniProt Q9NR96); assay: HEK293-Blue-hTLR-9 cells assay (SEAP reporter, ODN2006 stimulation); assay type: cell-based; conditions: HEK293-Blue-hTLR9 cells, ODN2006 ligand, 20 hrs incubation, antagonist
T1 sequence (Q9NR96 26-1032): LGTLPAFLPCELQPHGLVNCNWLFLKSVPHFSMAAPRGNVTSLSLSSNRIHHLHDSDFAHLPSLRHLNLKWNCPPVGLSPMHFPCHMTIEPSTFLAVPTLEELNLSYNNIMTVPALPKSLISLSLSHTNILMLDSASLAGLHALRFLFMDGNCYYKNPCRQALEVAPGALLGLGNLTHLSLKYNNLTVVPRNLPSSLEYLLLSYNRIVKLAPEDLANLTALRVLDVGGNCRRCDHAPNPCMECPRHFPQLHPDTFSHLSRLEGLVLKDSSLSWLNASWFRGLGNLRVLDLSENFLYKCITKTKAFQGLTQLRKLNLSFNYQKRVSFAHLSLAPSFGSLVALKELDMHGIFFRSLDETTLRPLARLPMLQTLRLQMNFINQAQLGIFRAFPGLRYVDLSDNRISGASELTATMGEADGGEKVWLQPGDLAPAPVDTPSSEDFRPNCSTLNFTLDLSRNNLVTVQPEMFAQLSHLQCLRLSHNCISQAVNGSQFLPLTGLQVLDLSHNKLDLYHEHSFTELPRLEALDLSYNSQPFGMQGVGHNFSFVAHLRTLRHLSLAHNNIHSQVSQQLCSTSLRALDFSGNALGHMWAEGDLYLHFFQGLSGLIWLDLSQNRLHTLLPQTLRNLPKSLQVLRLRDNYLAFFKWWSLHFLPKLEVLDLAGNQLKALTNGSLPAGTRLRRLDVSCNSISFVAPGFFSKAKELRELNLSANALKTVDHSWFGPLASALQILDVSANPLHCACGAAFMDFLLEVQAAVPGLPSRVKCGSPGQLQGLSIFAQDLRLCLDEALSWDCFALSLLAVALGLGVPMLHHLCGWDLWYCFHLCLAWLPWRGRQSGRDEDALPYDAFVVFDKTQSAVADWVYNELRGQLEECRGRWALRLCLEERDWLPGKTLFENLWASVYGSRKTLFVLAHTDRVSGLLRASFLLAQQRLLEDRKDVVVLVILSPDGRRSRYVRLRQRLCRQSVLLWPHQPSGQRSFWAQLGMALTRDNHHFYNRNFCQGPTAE
Procedure: The following tests were carried out in order to determine the activity of the compounds of formula (I) in HEK293-Blue-hTLR-7/8/9 cells assay.
HEK293-Blue-hTLR-9 Cells Assay:
A stable HEK293-Blue-hTLR-9 cell line was purchased from InvivoGen (Cat. #: hkb-htlr9, San Diego, Calif., USA). These cells were originally designed for studying the stimulation of human TLR9 by monitoring the activation of NF-κB. A SEAP (secreted embryonic alkaline phosphatase) reporter gene was placed under the control of the IFN-β minimal promoter fused to five NF-κB and AP-1-binding sites. The SEAP was induced by activating NF-κB and AP-1 via stimulating HEK-Blue hTLR9 cells with TLR9 ligands. Therefore the reporter expression was declined by TLR9 antagonist under the stimulation of a ligand, such as ODN2006 (Cat. #: tlrl-2006-1, Invivogen, San Diego, Calif., USA), for incubation of 20 hrs. The cell culture supernatant SEAP reporter activity was determined using QUANTI-Blue™ kit (Cat. #: rep-qb1, Invivogen, San Diego, Calif., USA) at a wavelength of 640 nm, a detection medium that turns purple or blue in the presence of alkaline phosphatase.
HEK293-Blue-hTLR9 cells were incubated at a density of […] cells/mL in a volume of 170 μL in a 96-well plate in Dulbecco's Modified Eagle's medium (DMEM) containing 4.5 g/L glucose, 50 U/mL penicillin, […], 2 mM L-glutamine, 10% (v/v) heat-inactivated fetal bovine serum with addition of 20 μL test compound in a serial dilution in the presence of final DMSO at 1% and 10 μL of 20 uM ODN2006 in above DMEM, perform incubation under 37° C. in a CO2 incubator for 20 hrs. Then 20 μL of the supernatant from each well was incubated with 180 μL Quanti-blue substrate solution at 37° C. for 2 hrs and the absorbance was read at 620˜655 nm using a spectrophotometer. The signalling pathway that TLR9 activation leads to downstream NF-κB activation has been widely accepted, and therefore similar reporter assay was modified for evaluating TLR9 antagonist.

Structure (SMILES)	IC50
C[C@@H]1CN(c2ccc(C#N)c3ncsc23)C[C@H](CN2[C@@H]3CC[C@H]2C[C@@H](N)C3)O1 [Example 8, Endo-7-[(2S,6R)-2-[[(1R,5S)-3-amino-8-azabicyclo[3.2.1]octan-8-yl]methyl]-6-methyl-morpholin-4-yl]-1,3-benzothiazole-4-carbonitrile]	109 nM
C[C@@H]1CN(c2ccc(C#N)c3ncsc23)C[C@H](CN2CCC(N3CCCCC3)CC2)O1 [Example 7, 7-[(2R,6S)-2-methyl-6-[[4-(1-piperidyl)-1-piperidyl]methyl]morpholin-4-yl]-1,3-benzothiazole-4-carbonitrile]	118 nM
C[C@@H]1CN(c2ccc(C#N)c3ncsc23)C[C@H](CN2[C@@H]3CC[C@H]2C[C@H](N)C3)O1 [Example 9, Exo-7-[(2S,6R)-2-[[(1S,5R)-3-amino-8-azabicyclo[3.2.1]octan-8-yl]methyl]-6-methyl-morpholin-4-yl]-1,3-benzothiazole-4-carbonitrile]	65 nM
C[C@@H]1CN(c2ccc(C#N)c3ncsc23)C[C@H](CN2CCC3(CCCN(C)C3)CC2)O1 [Example 10, 7-[(2R,6S)-2-methyl-6-[(2-methyl-2,9-diazaspiro[5.5]undecan-9-yl)methyl]morpholin-4-yl]-1,3-benzothiazole-4-carbonitrile]	77 nM
C[C@@H]1CN(c2ccc(C#N)c3ncsc23)C[C@H](CN2CCC3(CCNCC3)CC2)O1 [Example 5, 7-[(2S,6R)-2-(3,9-diazaspiro[5.5]undecan-3-ylmethyl)-6-methyl-morpholin-4-yl]-1,3-benzothiazole-4-carbonitrile]	145 nM
C[C@@H]1CN(c2ccc(C#N)c3ncsc23)C[C@H](C(=O)NCC2CN(C)CCO2)O1 (stereo partly drawn) [Example 12, (2R,6R)-4-(4-cyano-1,3-benzothiazol-7-yl)-6-methyl-N-[(4-methylmorpholin-2-yl)methyl]morpholine-2-carboxamide]	36800 nM
C[C@@H]1CN(c2ccc(C#N)c3ncsc23)C[C@H](CN2CCC3(CCCNC3)CC2)O1 [Example 3, 7-[(2S,6R)-2-(2,9-diazaspiro[5.5]undecan-9-ylmethyl)-6-methyl-morpholin-4-yl]-1,3-benzothiazole-4-carbonitrile]	77 nM
C[C@@H]1CN(c2ccc(C#N)c3ncsc23)C[C@H](CN2CCC(N)CC2)O1 [Example 2, 7-[(2S,6R)-2-[(4-amino-1-piperidyl)methyl]-6-methyl-morpholin-4-yl]-1,3-benzothiazole-4-carbonitrile]	300 nM
C[C@@H]1CN(c2ccc(C#N)c3ncsc23)C[C@H](CN2CC3(CCCNC3)C2)O1 [Example 4, 7-[(2S,6R)-2-(2,8-diazaspiro[3.5]nonan-2-ylmethyl)-6-methyl-morpholin-4-yl]-1,3-benzothiazole-4-carbonitrile]	101 nM
C[C@@H]1CN(c2ccc(C#N)c3ncsc23)C[C@H](C(=O)NC2CCN(C)CC2)O1 [Example 11, (2R,6R)-4-(4-cyano-1,3-benzothiazol-7-yl)-6-methyl-N-(1-methyl-4-piperidyl)morpholine-2-carboxamide]	17500 nM
C[C@@H]1CN(c2ccc(C#N)c3ncsc23)C[C@H](CN2CCC3(CCNC3)CC2)O1 [Example 6, 7-[(2S,6R)-2-(2,8-diazaspiro[4.5]decan-8-ylmethyl)-6-methyl-morpholin-4-yl]-1,3-benzothiazole-4-carbonitrile]	98 nM
C[C@@H]1CN(c2ccc(C#N)c3ncsc23)C[C@H](CN2CCC3(CCCNC3)C2)O1 (stereo partly drawn) [Example 1, 7-[(2S,6R)-2-(2,9-diazaspiro[4.5]decan-2-ylmethyl)-6-methyl-morpholin-4-yl]-1,3-benzothiazole-4-carbonitrile]	87 nM
